Measured values reported in US20240190889A1, “NEW CYCLOPENTA-THIENO-DIAZEPINE DERIVATIVES AS GABA A GAMMA1 POSITIVE ALLOSTERIC MODULATORS” (Hoffmann-La Roche Inc., priority 2021, published 2024).
Read-outs that look alike come from different tables or passages of the source.

Key:
[1] = target: human GABAA α1β3γ2 receptor (Homo sapiens (Human), UniProt P14867+P18507); experiment: Radioligand binding assay, competition for [3H]Flumazenil, γ2-containing GABAA subtypes; settings: for γ2/γ1 Selectivity Ratio: Ki α1β3γ2 (nM)/Ki α2β2γ1 (nM); for LogSel: Log[Ki α1β3γ2 (nM)/Ki α2β2γ1 (nM)]
Experimental: Membrane Preparation and Binding Assay for γ2-containing GABAA Subtypes
The affinity of compounds at GABAA γ2 subunit-containing receptors was measured by competition for [^3H]Flumazenil (81.1 Ci/mmol; Roche) binding to HEK293F cells expressing human (transiently transfected) receptors of composition α1β3γ2.
Harvested pellets from HEK293F cells expressing the different GABAA γ2 receptor subtypes were resuspended in Mannitol Buffer pH 7,2-7,4 and processed as described above for the cells expressing the GABAA γ1 subunit-containing receptors.
Assays were incubated to equilibrium for 1 hour at 4° C, and harvested onto GF/C uni-filters (Packard) by filtration using a Packard harvester and washing with ice-cold wash buffer (50 mM Tris; pH 7.5). After anhydrousing, filter-retained radioactivity was detected by liquid scintillation counting. Ki values were calculated using Excel-Fit (Microsoft) and are the means of two determinations.

[2] = target: human GABAA α5β2γ1 receptor (Homo sapiens (Human), UniProt P31644+Q8N1C3); experiment: Radioligand binding assay, competition for [3H]RO7239181, γ1-containing GABAA subtypes; settings: membranes from HEK293F cells, mean of two determinations
Experimental: (§1) Membrane Preparation and Binding Assay for γ1-containing GABAA Subtypes
The affinity of compounds at GABAA γ1 subunit-containing receptors was measured by competition for [^3H]RO7239181 (67.3 Ci/mmol: Roche) binding to membranes from HEK293F cells (ThermoFisher R79007) expressing human (transiently transfected) receptors of composition α5β2γ1, α2β2γ1, α1β2γ1. For better protein expression of the α2 subunit-containing receptors, the 28 amino acid long signal peptide (Metl to Ala28) of the human GABAA α2 subunit was substituted by the 31 amino acid long signal peptide (Met1 to Ser31) of human GABAA α5 subunit.
(§2) Harvested pellets from HEK293F cells expressing the different GABAA receptor subtypes were resuspended in Mannitol Buffer pH 7.2-7.4 (Mannitol 0.29 M, Tricthylamine 10 mM. Acetic acid 10 mM. EDTA 1 mM plus protease inhibitors (20 tablets Complete. Roche Diagnostics Cat. No. 05 056 489 001 per liter)), washed two times and then resuspended at 1:10 to 1:15 dilution in the same buffer. Cell disruption was performed by stirring the suspension in a Parr vessel #4637 at 435 psi for 15 minutes, and then the suspensions were centrifuged at 1000×g for 15 minutes at 4° C. (Beckman Avanti J-HC: rotor JS-4.2). The supernatant (S1) was transferred in a 21 Schott flask and the pellet (P1) was resuspended with Mannitol Buffer up to 175 ml. The resuspended pellet was transferred into a 250 ml Corning centrifugal beaker and centrifuged at 1500 ×g for 10 minutes at 4° C. (Beckman Avanti J-HC: rotor JS-4.2). The supernatant (S1) was then transferred in the 21 Schott flask and the pellet was discarded. The supernatants (S1) were centrifuged in 500ml Beckman polypropylene centrifugal beaker at 15 000×g for 30 minutes at 4° C. (Beckman Avanti J-20 XP; rotor JLA-10.500). The pellet (P2) was resuspended with Mannitol Buffer 1:1 and frozen at −80° C. The supernatant (S2) was centrifuged in 100 ml Beckman polypropylene centrifugal tubes at 48000×g for 50 minutes at 4 °C (Beckman Avanti J-20 XP: rotor JA-18). The supernatant (S3) was discarded and the pellet (P3) was resuspended with 1:1 Mannitol Buffer. The P2 and P3 protein concentration was determined with the BIORAD Standard assay method with bovine serum albumin as standard and measured on the NANO-Drop 1000. The membrane suspension was aliquots (500μl per tube) and stored at −80° C. until required.
(§3) Membrane homogenates were resuspended and polytronised (Polytron PT1200E Kinematica AG) in Potassium Phosphate 10 mM, KCl 100 mM binding buffer at pH 7.4 to a final assay concentration determined with a previous experiment.
(§4) Radioligand binding assays were carried out in a volume of 200 μL (96-well plates) which contained 100 μL of cell membranes. [^3H]RO7239181 at a concentration of 1.5 nM (α5β2γ1) or 20-30 nM (α1β2γ1, α2β2γ1) and the test compound in the range of [0.3-10000]33 10^−9 M. Nonspecific binding was defined by 10×10^6 (α5β2γ1) and 30×10^6 M RO7239181 and typically represented less than 5% (α5β2γ1) and less than 20% (α1β2γ1, α2β2γ1) of the total binding. Assays were incubated to equilibrium for 1 hour at 4° C. and then, membranes were filtered onto unifilter (96-well white microplate with bonded GF/C filters preincubated 20-50 minutes in 0.3% Polyethylenimine) with a Filtermate 196 harvester (Packard BioScience) and washed 4 times with cold Potassium Phosphate 10 mM pH 7.4. KCl 100 mM binding buffer. After anhydrousing, filter-retained radioactivity was detected by liquid scintillation counting. Ki values were calculated using Excel-Fit (Microsoft) and are the means of two determinations.
Representative test results, obtained by the above described assay measuring binding affinity to HEK293 cells expressing human (h) receptors, are shown in the Table 1.

[3] = target: human GABAA α2β2γ1 receptor (Homo sapiens (Human), UniProt P47869+Q8N1C3); experiment: as above
Experimental: as §1
(§5) The affinity of compounds at GABAA γ1 subunit-containing receptors was measured by competition for [^3H]RO7239181 (67.3 Ci/mmol: Roche) binding to membranes from HEK293F cells (ThermoFisher R79007) expressing human (transiently transfected) receptors of composition α5β2γ1, α2β2γ1, α1β2γ1.
as §2, §3
as §4, with “[^3H]RO7239181 at a concentration of 1.5 nM (α5β2γ1) or 20-30 nM (α1β2γ1, α2β2γ1) and the test compound in the range of [0.3-10000]33 10^−9 M. Nonspecific binding was defined by 10×10^6 (α5β2γ1) and 30×10^6 M RO7239181 and typically represented less than 5% (α5β2γ1) and less than 20% (α1β2γ1, α2β2γ1) of the total binding.” left out

[4] = target: h-GABA-A α2β2γ1 receptor expressed in Xenopus laevis oocytes (Homo sapiens (Human), UniProt P47869+Q8N1C3); experiment: Two-electrode voltage clamp electrophysiology in Xenopus oocytes expressing GABAA receptors; assay type: cell-based; settings: reference PAMs, GABA EC20
Description: Functional Expression of GABAA Receptors:
Xenopus Oocytes Preparation
Xenopus laevis oocytes at maturation stages V-VI were used for the expression of cloned mRNA encoding GABAA receptor subunits. Oocytes ready for RNA micro-injection were bought from Ecocyte, Castrop-Rauxel, Germany and stored in modified Barth's medium (composition in mM: NaCl 88, KCl 1, NaHCO3 2.4, HEPES 10, MgSO4 0.82, CaNO3 0.33, CaCl2 0.33, pH=7.5) at 20 C. until the experiment.
Xenopus Oocytes Microinjection
Oocytes were plated in 96-well plates for microinjection using the Roboinject automated instrument (MultiChannelSystems, Reutlingen, Germany). Approximately 50 nL of an aqueous solution containing the RNA transcripts for the subunits of the desired GABAA receptor subtype was injected into each oocyte. […] Oocytes were kept in modified Barth's medium (composition in mM: NaCl 88, KCl 1, NaHCO3 […], HEPES 10, MgSO4 0.82, CaNO3 0.33, CaCl2 0.33, pH=7.5) at 20° C. until the experiment.
Electrophysiological experiments were performed using the Roboocyte instrument (MultiChannelSystems, Reutlingen, Germany) on days 3 to 5 after the micro-injection of mRNA. During the experiment the oocytes were constantly superfused by a solution containing (in mM) NaCl 90, KCl 1, HEPES 5, MgCl: 1, CaCl, 1 (pH 7.4). Oocytes were impaled by two glass microelectrodes (resistance: 0.5-0.8 MS2) which were filled with a solution containing KCl 1M +K-acetate 1.5 M and voltage-clamped to −80 mV. The recordings were performed at room temperature using the Roboocyte two-electrode voltage clamp system (Multichannelsystem). After an initial equilibration period of 1.5 min GABA was added for 1.5 min at a concentration evoking approximately 20% of a maximal current response (EC20). After another rest interval of 2.5 min GABA was again added evoking a response of similar amplitude and shape. […] Current traces were recorded at a digitization rate of 10 Hz during and shortly before and after the GABA application.
Each compound and concentration was tested on at least 3 oocytes. Different oocytes were used for different compound concentrations.
For the analysis, the digitized current traces of the first and second GABA response were superimposed and, if necessary, rescaled to equal maximal amplitudes. The ratio between the two responses during the time interval of test compound application was calculated point by point. The extremum of the resulting “ratio trace” was taken as the efficacy (“Fold increase”) of the compound expressed as “% modulation of GABA EC” (100* (Fold increase-1)).

[5] = target: human GABAA α1β2γ1 receptor (Homo sapiens (Human), UniProt P14867+Q8N1C3); experiment: Radioligand binding assay, competition for [3H]RO7239181, γ1-containing GABAA subtypes
Experimental: as §1, §5, §2, §3
as §4, with “[^3H]RO7239181 at a concentration of 1.5 nM (α5β2γ1) or 20-30 nM (α1β2γ1, α2β2γ1) and the test compound in the range of [0.3-10000]33 10^−9 M. Nonspecific binding was defined by 10×10^6 (α5β2γ1) and 30×10^6 M RO7239181 and typically represented less than 5% (α5β2γ1) and less than 20% (α1β2γ1, α2β2γ1) of the total binding.” left out

SMILES | γ2/γ1 Selectivity Ratio [1] | LogSel [1] | Ki [1] [nM] | Ki [2] [nM] | Ki [3] [nM] | Ki ([3]; read-out: Ki h-GABAA α2β2γ1, membranes from HEK293F cells, [3H]RO7239181 20-30 nM, mean of two determinations) [nM] | potentiation of the GABA-induced current in α2β2γ1 GABAA receptor subtype expressing oocytes [4] [%] | Ki ([1]; HEK293F cell membranes, [3H]Flumazenil 1 nM, mean of two determinations, read-out: Ki h-GABAA α1β3γ2) [nM] | Ki [5] [nM]
Cc1nnc2n1-c1ccc(Cl)cc1C(c1ccccc1)=NC2 [Alprazolam, reference compound] | 0.0050 | −2.3 | – | – | – | – | – | – | –
C[C@@H]1N=C(c2c(F)cccc2F)c2c(sc3c2C[C@H](C(F)F)C3)-n2c(CO)cnc21 [Example 22, [(7S,13S)-13-(difluoromethyl)-9-(2,6-difluorophenyl)-7-methyl-16-thia-2,5,8-triazatetracyclo [8.6.0.02,6.011,15]hexadeca-1(10),3,5,8,11(15)-pentaen-3-yl]methanol] | – | 1.75 | 2510 | 44.3 | 10.2 | 10.2 | – | – | –
CN1C(=O)CN=C(c2ccccc2F)c2cc([N+](=O)[O-])ccc21 [Flunitrazepam, reference compound] | – | – | – | – | – | – | ~60 | – | –
Cc1ncc2n1-c1ccc(Cl)cc1C(c1ccccc1F)=NC2 [Midazolam, reference compound] | 0.0068 | −2.2 | – | – | – | – | ~60 | – | –
Cc1nnc2n1-c1sc3c(c1C(c1ccccc1Cl)=NC2)CCC3 [RE-A, reference compound] | 0.38 | −0.42 | 6.6 | – | 17.5 | – | – | – | –
CCOC(=O)C1Cc2sc3c(c2C1)C(c1ccccc1Cl)=NCc1nnc(C)n1-3 (centres unmarked) [RE-B, reference compound] | 1.66 | 0.22 | – | – | 734 | – | – | 1220 | –
Cc1nnc2n1-c1sc3c(c1C(c1c(F)cccc1F)=N[C@H]2C)CCC3 [RE-C, (7S)-9-(2,6-difluorophenyl)-3,7-dimethyl-16-thia-2,4,5,8-tetrazatetracyclo [8.6.0.02,6.011,15]hexadeca-1(10),3,5,8,11(15)-pentaene, reference compound] | 0.84 | −0.07 | 17.2 | – | 20.4 | – | – | – | 2.59
Cc1nnc2n1-c1ccc(Cl)cc1C(c1ccccc1Cl)=NC2 [Triazolam, reference compound] | – | −1.5 | – | – | – | – | ~60 | – | –
